Among the data in BindingDB's records for doi:10.1046/j.1471-4159.1998.70052147.x (F. Hoffmann-La Roche, 1998) are Ki values, retold here.

The target of the assay is Glutamate receptor ionotropic, NMDA 1 (Rattus norvegicus, UniProt P35439).

Structures are written as SMILES. Structures can show the parent of a compound that is named as a salt. Some results are limits rather than exact numbers.

What is called Ki is the dissociation constant of the complex between target and ligand, obtained from inhibition or displacement. A high value points to weaker binding. Regarding `OC(CN1CCC(Cc2ccc(F)cc2)CC1)c1ccc(Cl)cc1` (stereo unspecified), the affinity corresponds to a Ki of 0.3 µM.

For the compound `C[C@@H](CN1CCC(Cc2ccccc2)CC1)[C@@H](O)c1ccc(O)cc1`, the Ki was found to be 0.006 µM.

For `C[C@@H]([C@@H](O)c1ccc(O)cc1)N1CCC(O)(c2ccccc2)CC1` [1-[(1S,2S)-2-Hydroxy-2-(4-hydroxy-phenyl)-1-methyl-ethyl]-4-phenyl-piperidin-4-ol], the Ki amounted to 0.008 µM.

With `NCCCNCCCCNCCCN` [N,N''-bis(3-azanylpropyl)butane-1,4-diamine;hydrochloride], the affinity corresponds to a Ki of 2 µM.

`COc1cc2c(cc1O)C(CCc1ccc(Cl)cc1)N(C)CC2` (stereo unspecified) [Ro 04-5595] had a Ki of 0.02 µM.

Turning to `NCCCCNCCCN` [spermidine], the Ki is over 10 µM.
